Broadly, the IC50 is the midpoint of a concentration-inhibition curve.

Where a name gives a salt, the structure may show the parent alone.

The target of this test is T1, type V phosphodiesterase (Homo sapiens, UniProt O76074).
T1 construct: from tissue; host or cells: human peripheral blood granulocyte fraction, soluble, Q Sepharose
The experiment in a line: Phosphodiesterase inhibition activity (in vitro), Type V. Type of test: biochemical, human (peripheral blood of a healthy person). The note with it: 1 μM cGMP. An excerpt: (A) In order to evaluate selectivity of the compounds of the present invention for type IV phosphodiesterase, types I, II, III and V phosphodiesterase isozymes were purified in the following manner.
2) Solutions containing various phosphodiesterase isozymes were obtained from the thus obtained soluble fraction in the following manner. The thus, obtained soluble fraction was applied to a column of 1.6×10.0 cm packed with Q Sepharose which had been equilibrated with buffer A. Next, said column was washed with 300 ml of buffer A to remove non-absorbed protein. Phosphodiesterase was eluted with 200 ml of buffer A having 0.05 to 1.25M linear gradient of sodium acetate to collect about 40 fractions each containing 5.0 ml eluate. Each fraction was checked for cAMP- and cGMP-metabolizing phosphodiesterase activities. Of these fractions, a fraction having only cAMP-metabolizing activity and showing disappearance of the metabolizing activity by 0.1 μM cilostamide (a type III phosphodiesterase selective inhibitor) was used as the type III phosphodiesterase. […] These fractions were separately collected to be used as phosphodiesterase (types I, II and III) stock solutions for the examination of selectivity. p1 3) A solution containing type V phosphodiesterase was prepared from peripheral blood of a healthy person in the following manner. A 200 ml portion of physiological saline supplemented with dextran (3%) was added to 500 ml of heparinized peripheral blood and incubated at 37° C. for 40 minutes to effect precipitation of erythrocytes. The supernatant fluid after precipitation of erythrocytes was recovered and centrifuged once, and the resulting precipitate was suspended in buffer B (140 mM NaCl, 5 mM KCl, 5 mm glucose and 10 mM HEPES, pH 7.4), overlaid on a solution for density gradient centrifugation use (Ficoll solution) and then centrifuged at room temperature for 40 minutes at 450×g, thereby separating monocyte fraction and granulocyte fraction. The granulocyte fraction was washed once with buffer C (140 mM NaCl, 5 mM KCl, 1 mM CaCl2, 1 mM MgCl2, 5 mM glucose and 10 mM HEPES, pH 7.4) and suspended in buffer D (20 mM Bis-Tris, 5 mM dithioerythritol, 2 mM EGTA and 50 mM sodium acetate, pH 6.5) containing a protease inhibitor (40 μM leupeptin, 5 μM pepstatin A, 20 μM aprotinin, 50 μM phenyl-methyl-sulfonyl-fluoride or 2 mM benzamidine) and then the cells were disrupted using polytron and sonicator and subjected to ultracentrifugation (4° C., 100,000×g, 60 minutes) to give a soluble fraction.
4) The thus obtained soluble fraction was applied to a column of 1.6×10 cm packed with Q Sepharose which had been equilibrated with buffer D. Next, the column was washed with 120 ml of buffer D to remove non-absorbed protein. Phosphodiesterase was eluted with 300 ml of buffer D having 0.05 to 1.25M linear gradient of sodium acetate to collect fractions each containing 5.0 ml eluate. Each fraction was checked for cAMP- and cGMP-metabolizing phosphodiesterase activities. Fractions having only cGMP metabolizing activity were collected to be used as the type V phosphodiesterase stock solution.
(B) Inhibitory activities were measured using the thus obtained stock solutions of various phosphodiesterase isozymes.
1) A predetermined amount of each compound to be tested was subjected to 10 minutes of reaction at 30° C. in a reaction mixture containing 40 mM Tris-HCl (pH 8.0), 5 mM MgCl2, 4 mM 2-mercaptoethanol, 10 μM rolipram (a type IV phosphodiesterase selective inhibitor), 1 μM cAMP, 10 nM ^3 H-cAMP (in the case of type V phosphodiesterase, 1 μM cAMP and 10 nM ^3 H-cAMP are replaced by 1 μM cGMP and 100 nM ^3 H-cGMP) and each of the isozyme stock solutions. After completion of the reaction, the reaction mixture was boiled at 90° C. for 1 minute, ice-cooled, mixed with 1 unit of 5'-nucleotidase and then subjected to 10 minutes of reaction at 30° C., and the reaction was stopped by adding 1 ml of methanol. […]
In the case of `CCc1cc(C)c2c(-c3cccc(Br)c3)cc(=O)n(CC)c2n1` [Example 31, 4-(3-bromophenyl)-1,7-diethyl-5-methyl-1,8-naphthyridin-2(1H)-one], the IC50 was greater than 30 µM.
As to `CCc1cc(C)c2c(-c3ccccc3)cc(=O)n(C)c2n1` [Example 26, 7-Ethyl-1,5-dimethyl-4-phenyl-1,8-naphthyridin-2(1H)-one], half-maximal inhibition (IC50) required 27.3 µM. This lies in the double-digit micromolar range.
Take `CCCn1c(=O)cc(-c2cccc(Br)c2)c2c(C)cc(CC)nc21` [Example 33, 4-(3-Bromophenyl)-7-ethyl-5-methyl-1-propyl-1,8-naphthyridin-2(1H)-one]: half-maximal inhibition (IC50) required 8.39 µM.
The same measure for `CCc1cc(C)c2c(-c3cccc(Cl)c3)cc(=O)n(C)c2n1` [Example 27, 4-(3-Chlorophenyl)-7-ethyl-1,5-dimethyl-1,8-naphthyridin-2(1H)-one]: 27.9 µM; for `CCc1cc(C)c2c(-c3cccc(Cl)c3)cc(=S)n(C)c2n1` [Example 43, 4-(3-chlorophenyl)-7-ethyl-1,5-dimethyl-1,8-naphthyridine-2(1H)-thione]: 4.79 µM; for `CCn1c(=O)cc(-c2ccccc2)c2c(C)cc(C)nc21` [Example 38, 1-Ethyl-5,7-dimethyl-4-phenyl-1,8-naphthyridin-2(1H)-one]: 19.6 µM.
`CCc1cc(C)c2c(-c3cccc(Cl)c3)cc(=O)n(C3CC3)c2n1` [Example 35, 4-(3-Chlorophenyl)-1-cyclopropyl-7-ethyl-5-methyl-1,8-naphthyridin-2(1H)-on]: the IC50 turned out to be 41.6 µM.
Consider `CCn1c(=O)cc(-c2cccc(Br)c2)c2c(C)cc(C)nc21` [Example 30, 4-(3-Bromophenyl)-1-ethyl-5,7-dimethyl-1,8-naphthyridin-2(1H)-one], for which the 50% inhibitory concentration (IC50) came to 8.66 µM. This IC50 is about 4.8-fold lower than that of the compound before.
For the compound `Cc1cc(C)c2c(-c3cccc(Cl)c3)cc(=O)n(C)c2n1` [Example 24, 4-(3-chlorophenyl)-1,5,7-trimethyl-1,8-naphthyridin-2(1H)-one], half-maximal inhibition (IC50) was put at 9.7 µM.
The same measure for `CCn1c(=O)cc(-c2cccc(Cl)c2)c2cccnc21` [Example 15, 4-(3-Chlorophenyl)-1-ethyl-1,8-naphthyridin-2(1H)-one]: 41.2 µM; for `CCc1cc(C)c2c(C3CCCCC3)cc(=O)n(CC)c2n1` [Example 49, 4-cyclohexyl-1,7-diethyl-5-methyl-1,8-naphthyridin-2(1H)-one]: 3.87 µM; for `CCn1c(=O)cc(C2CCCCC2)c2cccnc21` [Example 46, 4-cyclohexyl-1-ethyl-1,8-naphthyridin-2(1H)-one 0.45 hydrochloride 0.25 hydrate]: 87 µM.
The same measure for `CCc1cc(C)c2c(-c3ccccc3)cc(=O)n(CC)c2n1` [Example 40, 1,7-Diethyl-5-methyl-4-phenyl-1,8-naphthyridin-2(1H)-one]: 14.5 µM; for `CCn1c(=O)cc(-c2cccc(Cl)c2)c2c(C)cc(C)nc21` [Example 29, 4-(3-Chlorophenyl)-1-ethyl-5,7-dimethyl-1,8-naphthyridin-2(1H)-one]: 24.6 µM.
